{"source": "paper PMC9229165", "about": "“In Vitro Anticancer Activity Screening of Novel Fused Thiophene Derivatives as VEGFR-2/AKT Dual Inhibitors and Apoptosis Inducers” (Pharmaceuticals, 2022)", "key": {"[1]": {"tested_on": "HepG2 cells", "experiment": "Flow cytometric cell cycle analysis", "type": "cell-based", "details": "HepG2, 48 h, at IC50", "procedure": "AKT-1 is known for its downstream activation of several proteins involved in cell proliferation and apoptosis evasion. In addition, it is reported to be involved in G1–S checkpoint transition and proliferation.\n(§1) Analyzing the DNA content in the cell cycle phases by flow cytometry was conducted using FACSCalibur (Becton Dickinson, Franklin Lakes, NJ, USA) following the manufacturer’s manual. The cell cycle analysis procedures were as reported by on HepG2 cells after their treatment with the most promising derivatives for 48 h. Further assessment of the proapoptotic effect was determined by the Annexin V-FITC/PI apoptosis detection kit (Catalog # K101-25, BD Biosciences, San Diego, CA, USA)."}, "[2]": {"molecular_target": "T1, AKT-1 (Homo sapiens, UniProt P31749)", "T1 sequence (P31749 whole entry)": "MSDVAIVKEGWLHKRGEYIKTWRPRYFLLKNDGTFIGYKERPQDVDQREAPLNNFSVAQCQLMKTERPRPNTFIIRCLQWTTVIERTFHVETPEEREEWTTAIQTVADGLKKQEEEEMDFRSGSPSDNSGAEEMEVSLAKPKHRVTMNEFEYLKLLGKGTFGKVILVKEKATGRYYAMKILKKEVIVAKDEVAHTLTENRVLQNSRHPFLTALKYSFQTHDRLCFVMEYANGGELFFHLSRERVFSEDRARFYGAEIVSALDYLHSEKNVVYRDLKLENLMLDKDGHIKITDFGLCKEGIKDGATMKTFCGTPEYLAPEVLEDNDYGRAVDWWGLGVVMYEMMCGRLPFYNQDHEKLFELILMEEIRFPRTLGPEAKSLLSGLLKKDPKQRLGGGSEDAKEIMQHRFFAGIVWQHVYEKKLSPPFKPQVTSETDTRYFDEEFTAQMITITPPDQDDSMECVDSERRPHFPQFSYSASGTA", "experiment": "Phospho-AKT1 (Ser473) cell-based phosphorylation ELISA in HepG2 cells", "set-up": "endogenous in cells; host or cells: HepG2", "procedure": "To investigate the success of the design strategy developed in this work, the effect of the promising candidates 3b and 4c was assessed on AKT-1, a crucial protein, by determining their phosphorylation inhibition rate in HepG2 cells and measuring their biochemical kinase inhibitory activity.\nVEGFR-2 phosphorylation was assayed using VEGFR2 Antibody (Phospho-Tyr951) (OAEC00085, AVIVA SYSTEM BIOLOGY), while Akt-1 was assayed by Mouse/Human/Rat Phospho-AKT1 (Ser473) (Cell-Based Phosphorylation ELISA) ELISA Kit-LS-F1447 (LSBio) according to manufacturer’s instructions."}, "[3]": {"experiment": "MTT assay on normal nononcogenic cell line WI38", "type": "cell-based", "details": "human, WI38 cells (normal nononcogenic cell line); MTT assay; noncancerous cell line; mean ± S.D. (n = 3); read-out: Cytotoxicity in IC50, WI38", "procedure": "(§2) The aforementioned results illustrate that compounds 3b and 4c are the most promising cytotoxic agents on both cell lines and will be subjected to a thorough mechanistic study to understand their anticancer activity. However, before doing this, their selective toxicity and, thus, their safety were evaluated by measuring the IC50 values against the normal nononcogenic cell line (Wl38) by an MTT assay as listed in Table 1. […] Compound 3b gave SI of 6, and compound 4c gave SI = 12 showing better selectivity toward cancer cells than doxorubicin with SI = 5.\n(§3) All cell lines (HepG2, PC-3, and nontumorigenic WI38) were supplied from VACSERA (Cairo, Egypt), cultured in DMEM (Invitrogen/Life Technologies, Waltham, MA, USA) at a density of 1.2–1.8 × 10,000 cells/well in a volume of 100 µL of the growth medium, and then incubated for 24 h, and an MTT assay was done as reported by."}, "[4]": {"tested_on": "WI38 cells", "experiment": "MTT assay on normal nononcogenic cell line WI38", "type": "cell-based", "details": "calculated by dividing the IC50 of WI38/PC-3; SI > 2 is considered safe", "procedure": "as §2, §3"}, "[5]": {"tested_on": "caspase-3", "experiment": "Active caspase-3 ELISA in HepG2 cells", "type": "cell-based, human", "procedure": "Apoptosis is known to be carried out through three different pathways: intrinsic, extrinsic, and granzyme pathways. One of the controlling proteins in apoptosis is the cysteine protease named caspase with the chief executer caspase 3 [46, 47]. Accordingly, assessing the effect of 3b and 4c on the active caspase-3 level was done in HepG2 cells taking doxorubicin as the reference drug.\nThe colorimetric ELISA assay for active caspase-3 detection was carried out utilizing Invitrogen™ Caspase-3 (Cleaved) Human ELISA-Kit (KHO1091, CA, USA) according to the manufacturer’s procedures. ROBONIK P2000 ELISA reader was used at 450 nm, and the standard curve was obtained by plotting the mean absorbance of each standard concentration against human caspase-3 concentrations."}, "[6]": {"molecular_target": "T2, VEGFR-2 (Homo sapiens, UniProt P35968)", "T2 sequence (P35968 20-1356)": "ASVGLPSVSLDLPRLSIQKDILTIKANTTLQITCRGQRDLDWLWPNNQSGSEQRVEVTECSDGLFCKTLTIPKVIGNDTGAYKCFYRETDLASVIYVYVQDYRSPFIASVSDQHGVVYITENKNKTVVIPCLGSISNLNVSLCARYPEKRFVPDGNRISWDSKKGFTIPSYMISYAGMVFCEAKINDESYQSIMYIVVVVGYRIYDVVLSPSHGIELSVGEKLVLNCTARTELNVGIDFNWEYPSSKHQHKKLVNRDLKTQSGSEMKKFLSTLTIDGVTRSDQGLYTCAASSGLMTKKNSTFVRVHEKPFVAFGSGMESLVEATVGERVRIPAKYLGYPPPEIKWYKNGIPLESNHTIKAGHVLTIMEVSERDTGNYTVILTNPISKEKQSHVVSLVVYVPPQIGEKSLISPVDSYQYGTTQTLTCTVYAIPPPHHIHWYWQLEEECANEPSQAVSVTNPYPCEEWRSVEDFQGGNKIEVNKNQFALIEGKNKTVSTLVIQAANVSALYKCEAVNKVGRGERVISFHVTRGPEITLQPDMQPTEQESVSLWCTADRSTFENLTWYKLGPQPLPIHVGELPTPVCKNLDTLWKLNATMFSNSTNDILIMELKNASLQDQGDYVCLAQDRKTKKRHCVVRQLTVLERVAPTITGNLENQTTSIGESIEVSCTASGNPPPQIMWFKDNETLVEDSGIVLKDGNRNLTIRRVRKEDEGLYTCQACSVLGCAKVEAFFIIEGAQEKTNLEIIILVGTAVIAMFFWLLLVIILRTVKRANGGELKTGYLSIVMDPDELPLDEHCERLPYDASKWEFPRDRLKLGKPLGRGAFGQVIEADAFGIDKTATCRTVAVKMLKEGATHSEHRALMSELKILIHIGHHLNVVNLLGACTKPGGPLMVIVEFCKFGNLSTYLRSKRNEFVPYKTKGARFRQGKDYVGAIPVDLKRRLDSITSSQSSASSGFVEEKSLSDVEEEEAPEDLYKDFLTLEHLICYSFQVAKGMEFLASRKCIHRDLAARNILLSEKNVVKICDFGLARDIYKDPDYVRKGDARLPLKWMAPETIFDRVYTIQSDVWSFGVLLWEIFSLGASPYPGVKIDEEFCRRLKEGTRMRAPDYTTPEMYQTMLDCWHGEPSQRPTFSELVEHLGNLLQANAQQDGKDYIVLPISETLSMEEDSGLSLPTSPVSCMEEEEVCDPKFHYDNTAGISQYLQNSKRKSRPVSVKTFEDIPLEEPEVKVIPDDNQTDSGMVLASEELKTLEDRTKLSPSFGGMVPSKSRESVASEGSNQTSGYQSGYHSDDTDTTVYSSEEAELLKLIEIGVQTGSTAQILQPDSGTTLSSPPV", "experiment": "VEGFR-2 phosphorylation cell-based ELISA in HepG2 cells", "details": "compounds at their formerly determined IC50", "description": "VEGFR-2 phosphorylation was assayed using VEGFR2 Antibody (Phospho-Tyr951) (OAEC00085, AVIVA SYSTEM BIOLOGY) [53], while Akt-1 was assayed by Mouse/Human/Rat Phospho-AKT1 (Ser473) (Cell-Based Phosphorylation ELISA) ELISA Kit-LS-F1447 (LSBio) according to manufacturer’s instructions [54]."}, "[7]": {"molecular_target": "T1, AKT-1", "experiment": "Akt kinase activity assay kit on cell lysate", "type": "biochemical", "details": "LY2780301 as reference", "excerpt": "(§5) The outcomes were expressed as IC50 values (mean standard deviation) calculated from the dose–response curves and their linear regression equations."}, "[8]": {"tested_on": "HepG2 cells", "experiment": "MTT antiproliferative assay on HepG2", "type": "cell-based", "details": "mean ± S.D. (n = 3), read-out: Cytotoxicity in IC50, HepG2", "procedure": "(§4) The antiproliferative activity of the thiophene compounds 3a–g, 4a–c, 6a, and 7a–d was evaluated by an in vitro MTT colorimetric assay on two oncogenic cell lines: liver (HepG2) and prostate (PC-3).\nas §3"}, "[9]": {"molecular_target": "T2, VEGFR-2", "experiment": "VEGFR2 (KDR) kinase assay kit", "type": "biochemical", "set-up": "purchased BPS Bioscience 40325", "details": "read-out: VEGFR-2 kinase inhibitory activity IC50", "excerpt": "as §5"}, "[10]": {"tested_on": "PC-3 cells", "experiment": "MTT antiproliferative assay on PC-3", "type": "cell-based", "details": "Homo sapiens, PC-3, MTT assay; mean ± S.D. (n = 3); read-out: Cytotoxicity in IC50, PC-3", "procedure": "as §4, §3"}, "[11]": {"tested_on": "HepG2 cells", "experiment": "Annexin V-FITC/PI apoptosis detection", "type": "cell-based", "details": "HepG2, 48 h", "procedure": "Annexin V/PI staining with flow cytometric analysis was adapted to measure early and late apoptotic cells and necrotic cells as presented in Table 3 and Figure 6.\nas §1"}, "[12]": {"tested_on": "lung, ovarian, CNS cells", "set-up": "method as in PMID 28759878", "details": "read-out: IC50 range in lung, ovarian, CNS cells; cited from earlier work"}, "[13]": {"tested_on": "FAK", "set-up": "method as in PMID 20050669, PMID 31923858", "details": "cited from earlier work"}, "[14]": {"tested_on": "HUVEC cells", "set-up": "method as in PMID 33328104", "details": "cited from earlier work"}, "[15]": {"tested_on": "PC3 cells", "set-up": "method as in PMID 33328104", "details": "cited from earlier work"}}, "note": "Values joined by “and” are separate entries in the source; they are usually repeats but may differ in a detail not shown here. Equal entries are not always repeated. Where two headings read alike, the source gives them in different places.", "data": [{"smiles": "CN1CCc2sc3nc(-c4ccc(Cl)cc4)[nH]c(=O)c3c21", "note": "[3b, 2-(4-Chlorophenyl)-5-methyl-3,5,6,7-tetrahydro-4H-pyrrolo[2′,3′:4,5]thieno[2,3-d]pyrimidin-4-one]", "values": [{"measurement": "% Content of DNA, G0:G1", "setting": "[1]", "result": 39.42, "unit": "%"}, {"measurement": "% Content of DNA, G2:M", "setting": "[1]", "result": 4.39, "unit": "%"}, {"measurement": "% Content of DNA, PreG1", "setting": "[1]", "result": 42.06, "unit": "%"}, {"measurement": "% Content of DNA, S", "setting": "[1]", "result": 56.19, "unit": "%"}, {"measurement": "Cell cycle comment (phase of arrest)", "setting": "[1]", "result": "cell growth arrest@ S"}, {"measurement": "AKT-1 phosphorylation inhibition rate", "setting": "[2]", "result": 63, "unit": "%"}, {"measurement": "IC50", "setting": "[3]", "result": "12.5 ± 0.68", "unit": "µM"}, {"measurement": "Selectivity Index (SI)", "setting": "[4]", "result": "6 and 5.79"}, {"measurement": "melting point", "result": 168, "unit": "°C"}, {"measurement": "Increase in active caspase-3 level over the untreated cells", "setting": "[5]", "result": "five-fold"}, {"measurement": "VEGFR-2 phosphorylation inhibition", "setting": "[6]", "result": 58.3, "unit": "%"}, {"measurement": "IC50", "setting": "[7]", "result": 6.96, "unit": "µM"}, {"measurement": "IC50", "setting": "[8]; Homo sapiens, HepG2, MTT assay", "result": 3.1, "unit": "µM"}, {"measurement": "IC50", "setting": "[8]; MTT assay", "result": "3.11 ± 0.14", "unit": "µM"}, {"measurement": "IC50", "setting": "[9]", "result": 0.126, "unit": "µM"}, {"measurement": "IC50", "setting": "[10]", "result": "2.15 ± 0.12", "unit": "µM"}, {"measurement": "Increase in early apoptotic cells over untreated cells", "setting": "[11]", "result": 5, "unit": "fold"}, {"measurement": "Increase in late apoptotic cells over untreated cells", "setting": "[11]", "result": 144, "unit": "fold"}, {"measurement": "Apoptosis, Total (cells percentage)", "setting": "[11]; at IC50", "result": 42.06, "unit": "%"}, {"measurement": "Apoptosis, Early (cells percentage)", "setting": "[11]; at IC50, Q2 in Figure 6", "result": 2.51, "unit": "%"}, {"measurement": "Apoptosis, Late (cells percentage)", "setting": "[11]; at IC50, Q3 in Figure 6", "result": 24.53, "unit": "%"}, {"measurement": "Necrosis (cells percentage)", "setting": "[11]; at IC50, Q4 in Figure 6", "result": 15.02, "unit": "%"}]}, {"smiles": "COc1ccc(-c2nc3sc4c(c3c(=O)[nH]2)CCCC4)cc1", "note": "[III]", "values": [{"measurement": "IC50", "setting": "[12]", "result": "0.6 to 1.2", "unit": "µM"}]}, {"smiles": "COc1ccccc1-c1csc2cnc(Nc3ccc(C(=O)NC4CCNCC4)c(F)c3)nc12", "note": "[II]", "values": [{"measurement": "IC50", "setting": "[13]", "result": 0.0282, "unit": "µM"}]}, {"smiles": "O=C(Nc1ccc(Cl)c(Cl)c1)Nc1nnc(Sc2ncnc3scc(-c4ccncc4)c23)s1", "note": "[V]", "values": [{"measurement": "Pro-apoptotic effect in HUVEC cells", "setting": "[14]", "result": 28.45, "unit": "%"}, {"measurement": "Pro-apoptotic effect in PC3 cells", "setting": "[15]", "result": 44, "unit": "%"}]}]}
